Measurements as given in PubChem BioAssay AID328 (DTP/NCI, 2004).
“And” between values parts separate entries of the source, which are not always exact repeats. Identical values can stand only once. Inconclusive results and toxic doses are left out. Residues, ends and D or L forms follow the SMILES beside them. *: point of attachment. Cbz = O=C(OCc1ccccc1)*; OtBu = CC(C)(C)O*

Test system: BDF1 mice, P388 leukemia ip, median survival T/C
Experiment: NCI In Vivo Anticancer Drug Screen. Data for tumor model P388 Leukemia (intraperitoneal) in B6D2F1 (BDF1) mice
Conditions: endpoint: median survival time, higher = longer survival
Method in brief: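 In tumour-bearing mice, survival after compound treatment is set against the vehicle group and given as a quotient.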

[1] = dose: 50.0 mg/kg/injection, schedule: Q01DX009 (ip), vehicle: saline with Tween-80
[2] = dose: 50.0 mg/kg/injection, schedule: Q04DX003 (ip), vehicle: saline with Tween-80
[3] = dose: 100.0 mg/kg/injection, schedule: Q01DX009 (ip), vehicle: saline with Tween-80
[4] = dose: 100.0 mg/kg/injection, schedule: Q04DX003 (ip), vehicle: saline with Tween-80
[5] = dose: 200.0 mg/kg/injection, schedule: Q01DX009 (ip), vehicle: saline with Tween-80
[6] = dose: 200.0 mg/kg/injection, schedule: Q04DX003 (ip), vehicle: saline with Tween-80
[7] = dose: 400.0 mg/kg/injection, schedule: Q04DX003 (ip), vehicle: saline with Tween-80
[8] = dose: 100.0 mg/kg/injection, schedule: Q01DX009 (ip), vehicle: saline
[9] = dose: 100.0 mg/kg/injection, schedule: Q04DX003 (ip), vehicle: saline
[10] = dose: 200.0 mg/kg/injection, schedule: Q04DX003 (ip), vehicle: saline
[11] = dose: 50.0 mg/kg/injection, schedule: Q04DX003 (ip), vehicle: saline

With `O=c1cc(-c2ccccc2)ss1` the T/C (dose: 6.25 mg/kg/injection, schedule: Q01DX009 (ip), vehicle: saline with Tween-80) was 98 % of control, the T/C (dose: 12.5 mg/kg/injection, schedule: Q01DX009 (ip), vehicle: saline with Tween-80) was 102 % of control and 122 % of control and the T/C [1] was 110 % of control and 121 % of control. For the same compound, the T/C [2] was 89 % of control, the T/C [3] was 121 % of control and 122 % of control and the T/C (dose: 100.0 mg/kg/injection, schedule: Q04DX003 (ip), vehicle: other) was 105 % of control. The T/C [4] was 99 % of control and 100 % of control, the T/C (dose: 178.0 mg/kg/injection, schedule: Q04DX003 (ip), vehicle: other) was 111 % of control and the T/C [5] was 110 % of control. For the same compound, the T/C (dose: 200.0 mg/kg/injection, schedule: Q04DX003 (ip), vehicle: other) was 100 % of control, the T/C [6] was 111 % of control and the T/C (dose: 266.0 mg/kg/injection, schedule: Q04DX003 (ip), vehicle: other) was 111 % of control. The T/C [7] was 100 % of control.

`Cc1ccc2[nH]c(=S)[nH]c(=S)c2c1` was tested, and the T/C [4] was 108 % of control, the T/C [6] was 95 % of control and the T/C [7] was 108 % of control.

`N#Cc1cc([N+](=O)[O-])ccc1Cl` was tested, and the T/C (dose: 25.0 mg/kg/injection, schedule: Q01DX009 (ip), vehicle: saline with Tween-80) was 90 % of control, the T/C [1] was 105 % of control and the T/C [3] was 105 % of control.

For `O=C1c2cc(Cl)ccc2-c2c(Cl)cc(Cl)cc21`, the T/C [4] was 91 % of control, the T/C [5] was 87 % of control and the T/C [6] was 100 % of control. For the same compound, the T/C [7] was 91 % of control.

`C1=CC23C4CCC2C2C4C4C(=C1)C3C2N1CCCCC41` (centres undefined) was tested, and the T/C (dose: 12.5 mg/kg/injection, schedule: Q01DX009 (ip), vehicle: Klucel (hydroxypropylcellulose) (HPC)) was 104 % of control, the T/C (dose: 25.0 mg/kg/injection, schedule: Q01DX009 (ip), vehicle: Klucel (hydroxypropylcellulose) (HPC)) was 100 % of control and the T/C (dose: 37.5 mg/kg/injection, schedule: Q04DX003 (ip), vehicle: Klucel (hydroxypropylcellulose) (HPC)) was 91 % of control. The T/C (dose: 50.0 mg/kg/injection, schedule: Q01DX009 (ip), vehicle: Klucel (hydroxypropylcellulose) (HPC)) was 100 % of control and the T/C (dose: 75.0 mg/kg/injection, schedule: Q04DX003 (ip), vehicle: Klucel (hydroxypropylcellulose) (HPC)) was 100 % of control.

`CSC(=S)N/N=C(\C)c1ccccn1` was tested, and the T/C (dose: 25.0 mg/kg/injection, schedule: Q04DX003 (ip), vehicle: saline with Tween-80) was 92 % of control, the T/C [2] was 99 % of control and the T/C [4] was 106 % of control.

For `CO[C@H]1C[C@](C)(O)Cc2cc3c(c(O)c21)C(=O)c1c(O)cc2c(c1C3=O)O[C@@H]1O[C@@]2(C)[C@H](O)[C@@H](N(C)C)[C@@H]1O`, the T/C (dose: 18.0 mg/kg/injection, schedule: Q04DX003 (ip), vehicle: lactate) was 228 % of control, the T/C (dose: 30.0 mg/kg/injection, schedule: Q04DX003 (ip), vehicle: lactate) was 271 % of control and the T/C (dose: 50.0 mg/kg/injection, schedule: Q04DX003 (ip), vehicle: lactate) was 107 % of control.

For `CCCCCCNc1c(F)c(C#N)c(F)c(F)c1C#N`, the T/C [1] was 103 % of control, the T/C [3] was 93 % of control and the T/C [5] was 110 % of control.

In the case of `CCOC(=O)C1CCCNC1` (centres undefined), the T/C [8] is reported as 104 % of control, the T/C [9] is reported as 95 % of control and the T/C (dose: 200.0 mg/kg/injection, schedule: Q01DX009 (ip), vehicle: saline) is reported as 100 % of control. For the same compound, the T/C [10] was 91 % of control, the T/C (dose: 400.0 mg/kg/injection, schedule: Q01DX009 (ip), vehicle: saline) was 112 % of control and the T/C (dose: 400.0 mg/kg/injection, schedule: Q04DX003 (ip), vehicle: saline) was 87 % of control.

For `CC1=CC=CC(C)(Cc2ccc(-c3ccc(CC4(C)C=CC=C(C)C4=O)cc3)cc2)C1=O` (centres undefined), the T/C (dose: 25.0 mg/kg/injection, schedule: Q01DX001 (ip), vehicle: saline with Tween-80) was 95 % of control, the T/C (dose: 50.0 mg/kg/injection, schedule: Q01DX001 (ip), vehicle: saline with Tween-80) was 95 % of control and the T/C (dose: 100.0 mg/kg/injection, schedule: Q01DX001 (ip), vehicle: saline with Tween-80) was 90 % of control.

`CC(=O)c1c(O)c(C)c(O)c2c1OC1=CC(=O)C(C(C)=O)C(=O)C12C` (centres undefined) was tested, and the T/C (dose: 5.0 mg/kg/injection, schedule: Q01DX009 (ip), vehicle: gum acacia) was 100 % of control and 103 % of control, the T/C (dose: 10.0 mg/kg/injection, schedule: Q01DX009 (ip), vehicle: gum acacia) was 105 % of control and 108 % of control and the T/C (dose: 20.0 mg/kg/injection, schedule: Q01DX009 (ip), vehicle: gum acacia) was 107 % of control. For the same compound, the T/C (dose: 35.0 mg/kg/injection, schedule: Q01DX010 (ip), vehicle: saline) was 116 % of control, the T/C (dose: 40.0 mg/kg/injection, schedule: Q01DX009 (ip), vehicle: gum acacia) was 96 % of control and 105 % of control and the T/C (dose: 53.0 mg/kg/injection, schedule: Q01DX010 (ip), vehicle: saline) was 122 % of control. The T/C (dose: 79.0 mg/kg/injection, schedule: Q01DX010 (ip), vehicle: saline) was 122 % of control and the T/C (dose: 80.0 mg/kg/injection, schedule: Q01DX009 (ip), vehicle: gum acacia) was 103 % of control and 108 % of control.

`c1ccc(C(NC2CC3CCC2C3)c2ccccc2)cc1` (centres undefined) was tested, and the T/C [11] was 108 % of control, the T/C [9] was 108 % of control and the T/C [10] was 108 % of control.

With `CCOC(=O)CSc1cc(C)c2c(N)c(C(=O)OCC)sc2n1` the T/C (dose: 50.0 mg/kg/injection, schedule: Q01DX005 (ip), vehicle: saline with Tween-80) was 88 % of control, the T/C (dose: 100.0 mg/kg/injection, schedule: Q01DX005 (ip), vehicle: saline with Tween-80) was 91 % of control and the T/C (dose: 200.0 mg/kg/injection, schedule: Q01DX005 (ip), vehicle: saline with Tween-80) was 89 % of control.

`COc1ccc(-c2noc(=O)c3ccccc23)cc1` was tested, and the T/C [1] was 102 % of control, the T/C [3] was 100 % of control and the T/C [5] was 114 % of control.

In the case of `CCC(C)C(NC(=O)OCc1ccccc1)C(=O)NC(C(=O)NC(CCC(=O)OC(C)(C)C)C(=O)OC)C(C)C` (stereo not drawn) (Cbz-Ile-Val-Glu(OtBu)-OMe; configuration not given here), the T/C (dose: 100.0 mg/kg/injection, schedule: Q04DX003 (ip), vehicle: saline sonified) is reported as 90 % of control, the T/C (dose: 200.0 mg/kg/injection, schedule: Q04DX003 (ip), vehicle: saline sonified) is reported as 90 % of control and the T/C (dose: 400.0 mg/kg/injection, schedule: Q04DX003 (ip), vehicle: saline sonified) is reported as 95 % of control.

In the case of `C[n+]1ccc2ccccc2c1`, the T/C (dose: 25.0 mg/kg/injection, schedule: Q01DX009 (ip), vehicle: saline) is reported as 100 % of control, the T/C (dose: 50.0 mg/kg/injection, schedule: Q01DX009 (ip), vehicle: saline) is reported as 100 % of control and the T/C [11] is reported as 104 % of control. For the same compound, the T/C [8] was 104 % of control and the T/C [9] was 100 % of control.

With `COC1=C(O)C(C(O)CO)OC1=O` (centres undefined) the T/C (dose: 6.25 mg/kg/injection, schedule: Q01DX009 (ip), vehicle: water) was 94 % of control, the T/C (dose: 12.5 mg/kg/injection, schedule: Q01DX009 (ip), vehicle: water) was 112 % of control and the T/C (dose: 25.0 mg/kg/injection, schedule: Q01DX009 (ip), vehicle: water) was 110 % of control. The T/C (dose: 25.0 mg/kg/injection, schedule: Q04DX003 (ip), vehicle: water) was 112 % of control, the T/C (dose: 50.0 mg/kg/injection, schedule: Q01DX009 (ip), vehicle: water) was 100 % of control and the T/C (dose: 50.0 mg/kg/injection, schedule: Q04DX003 (ip), vehicle: water) was 97 % of control. For the same compound, the T/C (dose: 100.0 mg/kg/injection, schedule: Q01DX009 (ip), vehicle: water) was 91 % of control, the T/C (dose: 100.0 mg/kg/injection, schedule: Q04DX003 (ip), vehicle: water) was 100 % of control and the T/C (dose: 200.0 mg/kg/injection, schedule: Q01DX009 (ip), vehicle: water) was 103 % of control. The T/C (dose: 200.0 mg/kg/injection, schedule: Q04DX003 (ip), vehicle: water) was 95 % of control, the T/C (dose: 400.0 mg/kg/injection, schedule: Q01DX009 (ip), vehicle: water) was 100 % of control and the T/C (dose: 400.0 mg/kg/injection, schedule: Q04DX003 (ip), vehicle: water) was 105 % of control.

`COc1cccc(CC(=O)NCCc2ccc(OC)c(OC)c2)c1` was tested, and the T/C [4] was 100 % of control, the T/C [6] was 90 % of control and the T/C [7] was 100 % of control.

In the case of `Clc1ccc(C[P+](c2ccccc2)(c2ccccc2)c2ccccc2)c(Cl)c1`, the T/C (dose: 1.4 mg/kg/injection, schedule: Q01DX009 (ip), vehicle: saline) is reported as 120 % of control and the T/C (dose: 7.5 mg/kg/injection, schedule: Q01DX009 (ip), vehicle: saline) is reported as 115 % of control.

For `CN(C)c1ccc(/C=N/Nc2ccc(C(C#N)=C(C#N)C#N)cc2)cc1`, the T/C [1] was 101 % of control, the T/C [3] was 89 % of control and the T/C [5] was 86 % of control.

`CC(=O)CC(=O)NCCCc1ccccc1` was tested, and the T/C (dose: 100.0 mg/kg/injection, schedule: Q04DX003 (sc), vehicle: olive oil, sesame oil, peanut oil) was 109 % of control, the T/C (dose: 200.0 mg/kg/injection, schedule: Q04DX003 (sc), vehicle: olive oil, sesame oil, peanut oil) was 100 % of control and the T/C (dose: 400.0 mg/kg/injection, schedule: Q04DX003 (sc), vehicle: olive oil, sesame oil, peanut oil) was 100 % of control.
